Reference: patent publication US20240115557A1, “INHIBITORS OF RNA-GUIDED NUCLEASES AND USES THEREOF” (The Brigham and Women's Hospital, Inc., priority 2022, published 2024)

Biological target: T1, SaCas9 (Staphylococcus aureus, UniProt J7RUA5)
T1 sequence (J7RUA5 1-1053): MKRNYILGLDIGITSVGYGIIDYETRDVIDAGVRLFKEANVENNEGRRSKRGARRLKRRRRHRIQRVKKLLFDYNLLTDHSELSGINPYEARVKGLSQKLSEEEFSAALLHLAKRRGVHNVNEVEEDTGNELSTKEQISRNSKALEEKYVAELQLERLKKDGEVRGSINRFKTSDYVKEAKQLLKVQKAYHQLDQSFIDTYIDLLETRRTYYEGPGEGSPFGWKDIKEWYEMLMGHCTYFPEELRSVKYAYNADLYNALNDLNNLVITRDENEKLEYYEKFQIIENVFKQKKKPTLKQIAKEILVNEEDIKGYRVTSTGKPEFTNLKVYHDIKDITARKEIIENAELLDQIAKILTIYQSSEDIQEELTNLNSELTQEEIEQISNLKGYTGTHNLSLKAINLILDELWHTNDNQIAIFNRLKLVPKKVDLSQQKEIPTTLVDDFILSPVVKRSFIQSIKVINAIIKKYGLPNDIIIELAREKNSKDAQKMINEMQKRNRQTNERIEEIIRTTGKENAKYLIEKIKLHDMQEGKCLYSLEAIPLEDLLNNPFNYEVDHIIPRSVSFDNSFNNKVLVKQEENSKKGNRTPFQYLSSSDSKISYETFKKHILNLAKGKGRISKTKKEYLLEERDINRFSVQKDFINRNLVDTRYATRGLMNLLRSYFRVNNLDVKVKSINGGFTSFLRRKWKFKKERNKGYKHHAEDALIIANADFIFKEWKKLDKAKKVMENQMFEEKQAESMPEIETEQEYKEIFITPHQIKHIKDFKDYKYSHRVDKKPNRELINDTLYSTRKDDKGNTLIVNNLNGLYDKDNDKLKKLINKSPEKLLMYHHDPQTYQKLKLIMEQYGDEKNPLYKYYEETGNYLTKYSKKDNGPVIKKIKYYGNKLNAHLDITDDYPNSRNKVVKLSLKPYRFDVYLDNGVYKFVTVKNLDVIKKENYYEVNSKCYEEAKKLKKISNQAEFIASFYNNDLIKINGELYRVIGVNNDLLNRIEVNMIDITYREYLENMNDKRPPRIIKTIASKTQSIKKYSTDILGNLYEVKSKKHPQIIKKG
Test: Strand displacement assay, SaCas9 primary screen
Type: biochemical
Settings: for Auto Zscore Rep 1 / Auto Zscore Rep 2 / Normalized Zscore Rep 1 / Normalized Zscore Rep 2: SaCas9 primary screen; for Auto Zscore Rep 1 / Normalized Zscore Rep 1: replicate 1; for Auto Zscore Rep 2 / Normalized Zscore Rep 2: replicate 2; for Normalized Zscore Rep 1 / Normalized Zscore Rep 2: weaker potential hits; for 3 sigma Hit: flag 1 = hit at 3 sigma; for 5 sigma Hit: flag 1 = hit at 5 sigma
Method: An overview of the screening for SaCas9 inhibitors is depicted in FIG. 14. A total of 43,168 Compounds were screened from the ICCB Libraries. Libraries screened for the initial compounds include ChemDiv 7 (34,848 cpds), Enamine 1 (5,280 cpds), ChemDiv1 (1,760 cpds), NIH Clinical Collection (450 cpds), Biomol 4—FDA Approved Library (640 cpds). A hit is determined from the Zscore, with 3-5σ being a weak hit, >5σ being a strong hit. The results of the hits include 193 Weak Hits and 249 Strong Hits. The NIH Clinical Collection 1-2014 was screened for 450 of 450 compounds, with 7 hits—1.5%. The Biomol 4—FDA Approved Library was screened for 640 of 640 compounds, with 8 hits—1.2%. […] Enamine 1 was screened for 5,280 of 6,004 compounds, with 44 hits—0.83%. Libraries are commercially available, with reference numbers utilized for compounds identifying the compound structures used. […]
Generalization of CAA to other Cas nucleases. Applicants sought to generalize CAA to other CRISPR-associated nucleases, including from Staphylococcus aureus (SaCas9). Given the similarities between SaCas9 and SpCas9 modes of DNA-substrate binding and protein folding,^26, 27 Applicants hypothesized that SaCas9-induced strand displacement could be similarly measured. Indeed, fluorescence quenching correlated with substrate cleavage in the CAA assay with active SaCas9:gRNA and an ACGGGT PAM sequence, which was validated with gel electrophoresis (FIG. 62F,G and FIG. 69F).
First, Applicants optimized various components and conditions of the strand displacement assay for Cas enzyme activity and generality with different Cas such as SpCas9 (FIG. 62B) or SaCas9 (FIG. 69F) or FnCas12a (FIG. 70A,B). Typically, SpCas9: gRNA (1:1.2 ratio) RNP was pre-formed at 1 μM in Cas9 assay buffer (20 mM Tris-HCl, pH=7.5, 100 mM KCl, 5 mM MgCl2) for 5 min at 4° C. before diluting to 10 nM in Cas9 assay buffer (2× final concentration). 25 μL of the Cas9 2× stock was manually dispensed to a black 384-well plate (Corning 3575) using electronic pipette. Apo SpCas9 (without guide RNA) was used at the same concentration as a control for no activity (mock inhibition). Following this, pre-annealed Alexa-Fluor 647 labeled substrate and quencher were also diluted to 1 nM and 5 nM in Cas9 assay buffer, respectively (2× stock solution). Next, 25 μL of the substrate/quencher solution was added manually to each well of the Cas9-containing 384-well plates using an electronic pipette and was incubated at 37° C. for 2.5 h. Fluorescent signals were read with the microplate reader set to read Alexa-Fluor 647 fluorescence. Assay was performed similarly with SaCas9 and FnCas12a using the respective enzyme, gRNA, substrate, and quencher oligos. Applicants similarly divulged the effect of PAM sequences of dsDNA on its assay specificity using TGG, TGC, AAC PAM containing substrates for SpCas9 (FIG. 62C), and ACGGGT, ACGGTT, TGCCCA PAM substrate for SaCas9 (FIG. 62F) and TTTC, TTGC, AAAG PAM substrates for FnCpf1 (FIG. 63B-C). Applicants also optimized the effective concentration of DS-AF647 and SS-AF647 fluorophores (FIG. 64A), DS-substrate to SpCas9 RNP ratio (FIG. 64B) and substrate to quencher ratio (FIG. 64C) on assay performance. Similarly, Applicants performed a time course experiment to establish the time required for maximum completion of the reaction at various substrate to SpCas9 RNP ratios (FIG. 64D).

Structure (SMILES) | Auto Zscore Rep 1 | Auto Zscore Rep 2 | Normalized Zscore Rep 1 | Normalized Zscore Rep 2 | 3 sigma Hit | 5 sigma Hit
Cc1c(NC(=O)C2=Cc3sc4c(c3CS2)CCCC4)c(=O)n(-c2ccccc2)n1C [Cpd E722-2603] | −0.3069 | 2.714 | 0.2035 | 0.262 | 1 | –
CN(C)S(=O)(=O)Nc1ccc(N2CCN(CC(=O)N3CCCC3)CC2)c(C(=O)O)c1 [Cpd F290-0671] | −0.453 | −0.8512 | 0.1922 | 0.2017 | 1 | –
CCN(Cc1ccccc1)c1ncc(NS(=O)(=O)c2ccc(F)cc2)cc1C(=O)O [Cpd F293-0001] | 0.4484 | 1.331 | 0.18 | 0.1781 | 1 | –
CCN(Cc1ccccc1)c1ncc(NS(=O)(=O)c2c(C)cc(C)cc2C)cc1C(=O)O [Cpd F293-0002] | 0.3791 | −0.09351 | 0.2023 | 0.2291 | 1 | –
CCN(Cc1ccccc1)c1ncc(NS(=O)(=O)c2ccccc2)cc1C(=O)O [Cpd F293-0004] | 1.668 | 0.9183 | 0.2707 | 0.1884 | 1 | 1
CCN(Cc1ccccc1)c1ncc(NS(=O)(=O)CC)cc1C(=O)O [Cpd F293-0006] | 1.342 | 0.9231 | 0.3022 | 0.2957 | 1 | 1
CCN(Cc1ccccc1)c1ncc(NS(=O)(=O)c2cc(C)ccc2C)cc1C(=O)O [Cpd F293-0010] | 2.149 | 2.534 | 0.2507 | 0.2028 | 1 | 1
Cc1cc(C)c(S(=O)(=O)Nc2cnc(N3CCCC3)c(C(=O)O)c2)c(C)c1 [Cpd F293-0426] | 0.8114 | 1.196 | 0.2469 | 0.2531 | 1 | 1
COc1ccc(OC)c(S(=O)(=O)Nc2cnc(N3CCCC3)c(C(=O)O)c2)c1 [Cpd F293-0436] | −1.371 | 1.264 | 0.1977 | 0.2223 | 1 | –
O=C(O)c1cc(NS(=O)(=O)c2ccc3c(c2)CCCC3)cnc1N1CCCC1 [Cpd F293-0441] | 1.399 | 1.863 | 0.3305 | 0.3044 | 1 | 1
Cc1cc(C)c(S(=O)(=O)Nc2cnc(N3CCCC3)c(C(=O)O)c2)cc1C [Cpd F293-0458] | 1.794 | 2.846 | 0.4509 | 0.429 | 1 | 1
CCN(CCN(C)C)c1ncc(NS(=O)(=O)c2cc(C)c(C)cc2C)cc1C(=O)O [Cpd F293-0515] | 2.129 | 2.544 | 0.2953 | 0.3056 | 1 | 1
CCCCN(CC)c1ncc(NS(=O)(=O)CC)cc1C(=O)O [Cpd F293-0526] | 0.7951 | −0.08392 | 0.179 | 0.186 | 1 | –
CCCCN(CC)c1ncc(NS(C)(=O)=O)cc1C(=O)O [Cpd F293-0529] | 0.1547 | −0.2374 | 0.1815 | 0.1895 | 1 | –
CCS(=O)(=O)Nc1cnc(N(CC(C)C)CC(C)C)c(C(=O)O)c1 [Cpd F293-0563] | 1.978 | 2.223 | 0.2792 | 0.3121 | 1 | 1
Cc1cc(C)c(S(=O)(=O)Nc2cnc(N(CC(C)C)CC(C)C)c(C(=O)O)c2)cc1C [Cpd F293-0589] | 1.656 | 0.2997 | 0.335 | 0.2929 | 1 | 1
CCN(CC)c1ncc(NS(=O)(=O)c2cc(C)c(C)cc2C)cc1C(=O)O [Cpd F293-0740] | 0.2771 | −0.1319 | 0.2333 | 0.2114 | 1 | 1
O=C(O)c1cc(NS(=O)(=O)c2cc(F)ccc2F)cnc1N1CCOCC1 [Cpd F293-0775] | −0.9384 | 0.6834 | 0.1939 | 0.1646 | 1 | –
CN(C)c1ncc(NS(=O)(=O)c2cc(F)ccc2F)cc1C(=O)O [Cpd F293-0814] | 2.553 | 2.947 | 0.2358 | 0.2376 | 1 | 1
CN(C)c1ncc(NS(=O)(=O)c2ccc(F)c(F)c2)cc1C(=O)O [Cpd F293-0815] | 1.676 | 1.235 | 0.2087 | 0.159 | 1 | –
CCS(=O)(=O)Nc1cnc(N(C)CCCc2c(C)nn(C)c2C)c(C(=O)O)c1 [Cpd F293-0908] | −0.5672 | 0.4148 | 0.2527 | 0.2772 | 1 | 1
